pIC50, pKd: −log10 of the molar value. The source made the active and inactive calls. No cut-off for these calls is given here. Where a SMILES comes first, the peptide text is derived from it. [ ]: non-standard residue; d: D form. The star is where a group is joined. X1 = COc1cccc2c1C(=O)c1c(O)c3c(c(O)c1C2=O)C[C@@](O)(C(=O)CO)C[C@@H]3O[C@H]1C[C@H](NC(=O)OCc2ccc(NC(=O)C(CCCNC(N)=O)NC(=O)C(NC(=O)CCCCCN3C(=O)CC(*)C3=O)C(C)C)cc2)[C@H](O)[C@H](C)O1; C18 diacid = O=C(O)CCCCCCCCCCCCCCCCC(=O)*; AEEA = NCCOCCOCC(=O)O
Columns and labels:
[1] = Toxicity in BALB/c nude mouse xenografted with human MDA-MB-231 cells assessed as effect on spleen at 5 mg/kg, iv administered once every 3 days for 27 days starting from day 3 by H and E staining based analysis; assay type: organism-based; conditions: in vivo, 576 h, time 24 day
[2] = Cytotoxicity against human MCF-10A cells assessed as decrease in cell viability incubated for 24 hrs by CCK-8 assay; assay type: toxicity, cell-based
MDA-MB-231 [3] = assay: Induction of apoptosis in human MDA-MB-231 cells assessed as necrotic cells at 16 nM incubated for 24 hrs by AnnexinV-FITC/PI staining based flow cytometry (reference value: 0.034%); assay type: functional
MDA-MB-231 [4] = assay: Induction of apoptosis in human MDA-MB-231 cells assessed as late apoptotic cells at 16 nM incubated for 24 hrs by AnnexinV-FITC/PI staining based flow cytometry (reference value: 0.034%); assay type: functional
MDA-MB-231 [5] = assay: Antitumor activity against human MDA-MB-231 cells xenografted in BALB/c nude mouse assessed as tumor growth inhibition at 5 mg/kg, iv administered once every 3 days for 27 days starting from day 3; assay type: functional, organism-based; conditions: time 24.0 day
[6] = Toxicity in BALB/c nude mouse xenografted with human MDA-MB-231 cells assessed as effect on ALT level at 5 mg/kg, iv administered once every 3 days for 27 days starting from day 3; assay type: organism-based; conditions: in vivo, 576 h, time 24 day
[7] = Drug uptake in ROR1-positive human MDA-MB-231 cells cytoplasm assessed as increase in red fluorescence at 10 uM measured after 2 hrs by Hoechst 33342 staining based confocal fluorescence microscopic analysis; assay type: ADME, subcellular; conditions: mda-mb-231, 2 h
MDA-MB-231 [8] = assay: Induction of apoptosis in human MDA-MB-231 cells assessed as viable cells at 15 nM incubated for 24 hrs by AnnexinV-FITC/PI staining based flow cytometry (reference value: 99.9%); assay type: functional; conditions: read-out: Activity
MDA-MB-231 [9] = assay: Cytotoxicity against ROR1-positive human MDA-MB-231 cells assessed as decrease in cell viability incubated for 24 hrs by CCK-8 assay; assay type: functional, cell-based; conditions: MDA-MB-231, 24 h
MDA-MB-231 [10] = assay: Antitumor activity against human MDA-MB-231 cells xenografted in BALB/c nude mouse assessed as reduction in tumor volume at 5 mg/kg, iv measured after first injection starting from day 3 on day 6; assay type: functional, organism-based; conditions: time 3.0 day
[11] = Toxicity in BALB/c nude mouse xenografted with human MDA-MB-231 cells assessed as effect on liver at 5 mg/kg, iv administered once every 3 days for 27 days starting from day 3 by H and E staining based analysis; assay type: organism-based; conditions: in vivo, 576 h, time 24 day
[12] = Toxicity in BALB/c nude mouse xenografted with human MDA-MB-231 cells assessed as effect on heart at 5 mg/kg, iv administered once every 3 days for 27 days starting from day 3 by H and E staining based analysis; assay type: organism-based; conditions: in vivo, 576 h, time 24 day
[13] = AUC(0 to infinity) in Sprague-Dawley rat at 15 mg/kg, iv measured upto 12 hrs by UPLC-QTOF/MS analysis; assay type: ADME, organism-based; conditions: in vivo
[14] = target: Inactive tyrosine-protein kinase transmembrane receptor ROR1 (Homo sapiens, UniProt Q01973); assay: Binding affinity to N-terminal His/GST-tagged recombinant human ROR1 (453 to 783 residues) extracted from baculovirus infected insect cells assessed as dissociation constant by SPR analysis
[15] = Elimination rate constant in Sprague-Dawley rat at 15 mg/kg, iv measured upto 12 hrs by UPLC-QTOF/MS analysis; assay type: ADME, organism-based; conditions: in vivo
MDA-MB-231 [16] = assay: Induction of apoptosis in human MDA-MB-231 cells assessed as early apoptotic cells at 16 nM incubated for 24 hrs by AnnexinV-FITC/PI staining based flow cytometry (reference value: 0%); assay type: functional
MDA-MB-231 [17] = assay: Induction of apoptosis in human MDA-MB-231 cells assessed as early apoptotic cells at 15 nM incubated for 24 hrs by AnnexinV-FITC/PI staining based flow cytometry (reference value: 0%); assay type: functional
[18] = Toxicity in BALB/c nude mouse xenografted with human MDA-MB-231 cells assessed as effect on kidney at 5 mg/kg, iv administered once every 3 days for 27 days starting from day 3 by H and E staining based analysis; assay type: organism-based; conditions: in vivo
MDA-MB-231 [19] = assay: Induction of apoptosis in human MDA-MB-231 cells assessed as late apoptotic cells at 15 nM incubated for 24 hrs by AnnexinV-FITC/PI staining based flow cytometry (reference value: 0.034%); assay type: functional
MDA-MB-231 [20] = assay: Induction of apoptosis in human MDA-MB-231 cells at 10 uM incubated for 24 hrs by Annexin V-FITC/PI staining based flow cytometric analysis; assay type: functional, cell-based
[21] = Drug uptake in ROR1-negative human MCF7 cells assessed as increase in fluorescence intensity at 10 uM incubated for 2 hrs by Hoechst 33342 staining based confocal fluorescence microscopic analysis; assay type: ADME, cell-based; conditions: mcf7, 2 h
[22] = Area under the first moment curve in Sprague-Dawley rat at 15 mg/kg, iv measured upto 12 hrs by UPLC-QTOF/MS analysis; assay type: ADME, organism-based; conditions: in vivo
[23] = AUC(0 to t) in Sprague-Dawley rat at 15 mg/kg, iv measured upto 12 hrs by UPLC-QTOF/MS analysis; assay type: ADME, organism-based; conditions: in vivo
[24] = MRT in Sprague-Dawley rat at 15 mg/kg, iv measured upto 12 hrs by UPLC-QTOF/MS analysis; assay type: ADME, organism-based; conditions: in vivo
MDA-MB-231 [25] = assay: Induction of apoptosis in human MDA-MB-231 cells assessed as viable cells at 16 nM incubated for 24 hrs by AnnexinV-FITC/PI staining based flow cytometry (reference value: 99.9%); assay type: functional; conditions: read-out: Activity
[26] = Clearance in Sprague-Dawley rat at 15 mg/kg, iv measured upto 12 hrs by UPLC-QTOF/MS analysis; assay type: ADME, organism-based; conditions: in vivo
SK-HEP1 = assay: Cytotoxicity against human SK-HEP1 cells assessed as decrease in cell viability incubated for 24 hrs by CCK-8 assay; assay type: functional, cell-based; conditions: SK-HEP1, 24 h
MCF7 = assay: Cytotoxicity against ROR1-negative human MCF7 cells assessed as decrease in cell viability incubated for 24 hrs by CCK-8 assay; assay type: functional, cell-based; conditions: MCF7, 24 h
[27] = Toxicity in BALB/c nude mouse xenografted in human MDA-MB-231 cells assessed as effect on AST level at 5 mg/kg, iv administered once every 3 days for 27 days starting from day 3; assay type: organism-based; conditions: in vivo, 576 h, time 24 day
[28] = Half life in Sprague-Dawley rat at 15 mg/kg, iv measured upto 12 hrs by UPLC-QTOF/MS analysis; assay type: ADME, organism-based; conditions: in vivo
MDA-MB-231 [29] = assay: Induction of apoptosis in human MDA-MB-231 cells assessed as necrotic cells at 15 nM incubated for 24 hrs by AnnexinV-FITC/PI staining based flow cytometry (reference value: 0.034%); assay type: functional
[30] = Toxicity in BALB/c nude mouse xenografted with human MDA-MB-231 cells assessed as effect on lung at 5 mg/kg, iv administered once every 3 days for 27 days starting from day 3 by H and E staining based analysis; assay type: organism-based; conditions: in vivo
[31] = Toxicity in BALB/c nude mouse xenografted with human MDA-MB-231 cells assessed as change in body weight at 5 mg/kg, iv measured after first injection starting from day 3 on day 6; assay type: organism-based; conditions: in vivo, 72 h, time 3 day
[32] = Toxicity in BALB/c nude mouse xenografted with human MDA-MB-231 cells assessed as body weight loss at 5 mg/kg, iv administered once every 3 days for 27 days starting from day 3; assay type: organism-based; conditions: in vivo, 576 h, time 24 day

Inactive tyrosine-protein kinase transmembrane receptor ROR1, sequence (Q01973 whole entry, the tested form may be a part): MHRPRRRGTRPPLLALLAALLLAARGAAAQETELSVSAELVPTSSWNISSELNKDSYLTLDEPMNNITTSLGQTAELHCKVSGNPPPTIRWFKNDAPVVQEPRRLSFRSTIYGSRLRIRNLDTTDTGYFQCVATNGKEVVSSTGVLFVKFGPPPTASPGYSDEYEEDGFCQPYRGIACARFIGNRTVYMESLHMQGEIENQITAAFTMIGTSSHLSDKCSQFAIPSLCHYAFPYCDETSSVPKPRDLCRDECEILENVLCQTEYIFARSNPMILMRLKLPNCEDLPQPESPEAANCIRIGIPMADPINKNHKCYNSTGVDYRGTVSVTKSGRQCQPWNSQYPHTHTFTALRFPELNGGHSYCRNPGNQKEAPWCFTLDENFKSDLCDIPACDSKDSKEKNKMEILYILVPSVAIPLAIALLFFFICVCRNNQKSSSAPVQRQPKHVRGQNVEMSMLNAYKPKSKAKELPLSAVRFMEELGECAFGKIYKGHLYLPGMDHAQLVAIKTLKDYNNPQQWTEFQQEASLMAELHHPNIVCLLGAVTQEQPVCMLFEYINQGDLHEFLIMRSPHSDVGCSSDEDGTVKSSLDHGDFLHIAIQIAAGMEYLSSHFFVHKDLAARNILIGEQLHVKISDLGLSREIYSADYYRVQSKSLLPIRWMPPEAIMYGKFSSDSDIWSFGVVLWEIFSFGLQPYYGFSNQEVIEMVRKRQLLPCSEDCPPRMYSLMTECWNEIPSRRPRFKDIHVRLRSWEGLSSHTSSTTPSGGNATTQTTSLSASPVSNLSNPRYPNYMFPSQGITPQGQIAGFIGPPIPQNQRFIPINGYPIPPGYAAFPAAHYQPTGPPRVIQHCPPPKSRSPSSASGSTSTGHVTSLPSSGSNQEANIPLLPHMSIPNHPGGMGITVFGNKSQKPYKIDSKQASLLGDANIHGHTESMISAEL

With `CC[C@H](C)[C@H](NC(=O)[C@H](CC(=O)O)NC(=O)[C@H](CO)NC(=O)CNC(=O)[C@H](CSC1CC(=O)N(CCCCCC(=O)NC(C(=O)NC(CCCNC(N)=O)C(=O)Nc2ccc(COC(=O)N[C@H]3C[C@H](O[C@H]4C[C@](O)(C(=O)CO)Cc5c(O)c6c(c(O)c54)C(=O)c4c(OC)cccc4C6=O)O[C@@H](C)[C@H]3O)cc2)C(C)C)C1=O)NC(=O)CNC(=O)[C@H](CCCCN)NC(=O)COCCOCCNC(=O)COCCOCCNC(=O)[C@H](CCC(=O)O)NC(=O)CCCCCCCCCCCCCCCCC(=O)O)C(=O)N[C@@H](CC(N)=O)C(=O)N[C@@H](CC(=O)O)C(=O)N[C@@H](CCCNC(=N)N)C(=O)N[C@@H](CCC(N)=O)C(=O)N[C@H](C(=O)N1CCC[C@H]1C(=O)NCC(=O)N[C@@H](Cc1ccc(O)cc1)C(=O)N[C@@H](CO)C(=O)N[C@H](C(=O)N[C@@H](Cc1ccc(O)cc1)C(=O)N[C@@H](Cc1c[nH]c2ccccc12)C(=O)NCC(=O)N[C@@H](CC(=O)O)C(=O)N[C@@H](Cc1ccccc1)C(N)=O)[C@@H](C)O)[C@@H](C)CC` (some centres undefined) ({C18 diacid}-E[AEEA][AEEA]KGC(X1)GSDINDRQIPGYSTYWGDF-NH2) the Activity [1] was “Non-toxic”, the IC50 at 24 h [2] was 23200 nM and the Activity (MDA-MB-231 [3]) was 0.5%. For the same molecule, the Activity (MDA-MB-231 [4]) was 9.51%, the Activity (MDA-MB-231 [5]) was “Active” and the Activity [6] was “Toxic”. For the same molecule, the Drug uptake [7] was “Active”, the viability at 0.015 µM (MDA-MB-231 [8]) was 80.1% and the pIC50 (MDA-MB-231 [9]) was 7.82. For the same molecule, the Activity (MDA-MB-231 [10]) was “inactive”, the Activity [11] was “Non-toxic” and the Activity [12] was “Non-toxic”. It also gave an AUC(0-inf) [13] of 57800 ng·h/mL, a pKd [14] of 8.76 and a k el at 12 h [15] of 8.92e-05 s⁻¹. The Activity (MDA-MB-231 [16]) was 39.7%, the Activity (MDA-MB-231 [17]) was 13.3% and the Activity [18] was “Non-toxic”. For the same molecule, the Activity (MDA-MB-231 [19]) was 5.59%, the Activity (MDA-MB-231 [20]) was “Active; Exhibited Apoptosis Primarily In Early Stage” and the Drug uptake [21] was “Not_active”. The AUMC [22] was 217552.348 ng/mL.hr^2, the AUCt [23] was 55100 ng·h/mL and the MRT [24] was 3.78 h. The viability at 0.016 µM (MDA-MB-231 [25]) was 50.3%, the CL [26] was 0.001 mg/ng/mL/h and the pIC50 (SK-HEP1) was 6.24. The pIC50 (MCF7) was 4.98, the Activity [27] was “Toxic” and the half-life [28] was 2.62 h. For the same molecule, the Activity (MDA-MB-231 [29]) was 1.02%, the Activity [30] was “Non-toxic” and the Activity [31] was “Non-toxic”. The Activity [32] was “Non-toxic”.

— ChEMBL document CHEMBL6083182, “Development of Peptide Paratope Mimics Derived from the Anti-ROR1 Antibody and Long-Acting Peptide-Drug Conjugates for Targeted Cancer Therapy” (J Med Chem, 2024)
